# Assay results from PubChem BioAssay AID1963841 (Molecular Pharmacology Branch, DTP, NCI, 2024).
# Where “and” joins values, the source holds several entries; their conditions need not be identical. Identical values can stand only once.
# System: 439559-082-T-J2-PDC spheroid viability
# Test: Anticancer human tumor 439559-082-T-J2-PDC patient-derived colon adenocarcinoma cell line growth inhibition [POLQ]
# Conditions: spheroids with HUVEC and MSC; for viability, T/C: stronger effect = lower value
# Method: Multicellular complex tumor spheroid response to Polymerase (POL) inhibitors (novobiocin, ART-558, RP6685) in combination with a variety of drugs and investigational agents in selected tumor cell lines
# The POL inhibitors (novobiocin, ART-558, and RP6685) were evaluated both individually and in combination with standard of care and investigational anticancer small molecules within a complex spheroid model of solid tumors. . Complex spheroids include a stromal component modeled by human endothelial cells (HUVEC) and fibroblasts modeled by human mesenchymal stem cells (MSCs). The concentration ranges selected for each drug and investigational agent were based upon clinically achievable concentrations if the clinical Cmax of the agent was known.
# Compounds. The drugs and investigational agents: novobiocin (NSC847541), ART-558 (NSC835418), RP-6685 (NSC848927), peposertib (NSC802822), ceralasertib (NSC780249), elimusertib (NSC800525), camonsertib (NSC841442), AZD-1390 (NSC803789), olaparib (NSC753686), talazoparib (NSC767125), rucaparib (NSC756644), sotorasib (NSC818433), MRTX-1133 (NSC836407), SN-38 (NSC673596), topotecan (NSC609699), epotoside (NSC141540), doxorubicin (NSC123127), gemcitabine (NSC613327), 5-fluorouracil (NSC19893), paclitaxel (NSC125973), vemurafenib (NSC761431), MSA-2 (NSC828583), SN-011 (NSC837082), adavosertib (NSC754352), prexasertib (NSC758257), carboplatin (NSC241240) and oxaliplatin (NSC266046), were obtained from the National Cancer Institute (NCI) Developmental Therapeutics Program Chemical Repository (21). The FDA-approved anticancer drug set is available from the Developmental Therapeutics Program at https://dtp.cancer.gov/organization/dscb/obtaining/. […] The stock solutions were prepared in dimethyl sulfoxide (DMSO, Sigma-Aldrich, St. Louis, MO, cat. D2650), except for the platinum compounds which were prepared in saline (Quality Biological, Gaithersburg, MD, cat. 114-055-101), at 800-fold the tested concentration and stored at -70 degrees C prior to their use. All drugs and investigational agents were tested over a range starting from a high concentration at or near the clinical Cmax and decreasing in half-log increments. If the clinical Cmax for an agent had not been determined, the highest concentration tested was 10 microM, except for SN-38, which was tested at a high concentration of 1 microM.
# Cell Culture. All cells were maintained in an incubator at 37 degrees C and 5% CO2 with 95% humidity. The PDC lines were cultured according to standard operating procedures established by the NCI PDMR (https://pdmr.cancer.gov). Table 3 of the manuscript, lists the cell lines along with the number of the three cell types plated to form the mct-spheroids and media for tumor cell growth. After thawing, all PDC lines, except 997537-175-T-J1-PDC and 415267-285-R-J2-PDC, were cultured in Matrigel-coated flasks prepared with a working solution of 1X Ham's F-12 nutrient mix, without supplementation (Thermo Fisher Scientific, cat. 11765054), 100 U/mL penicillin-streptomycin (Thermo Fisher Scientific, cat. 15140122), and 2.5% Matrigel (Corning Inc., Corning, NY, cat. 354248) for the first three passages. The two PDC lines 997537-175-T-J1-PDC and 415267-285-R-J2-PDC were cultured on uncoated flasks. The 857933-349-R-J2-PDC line was cultured in 6C/Colon 1B media containing advanced DMEM/F-12 (Thermo Fisher Scientific, cat. 12634028), 10 mM HEPES (Thermo Fisher Scientific, cat. 15630080), 1X GlutaMAX supplement (Thermo Fisher Scientific, cat. 35050061), 0.1 mg/mL primocin (InvivoGen, San Diego, CA, cat. ant-pm-2), 10% defined fetal bovine serum, heat inactivated (HyClone Laboratories Inc., Logan, UT, cat. SH30070.03HI), 50% L-WRN conditioned media (ATCC, cat. CRL-3276), 1.25 mM N-Acetyl-L-cysteine (Sigma-Aldrich, cat. A9165), 10 mM nicotinamide (Sigma-Aldrich, cat. N0636), 1X B-27 supplement (Thermo Fisher Scientific, cat. 17504044), 1X N-2 supplement (Thermo Fisher Scientific, cat. […]
# 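Note: spheroids exposed to compounds for seven days before readout.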
# 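Throughout, for viability, T/C: 100% = DMSO vehicle control viability.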
smiles,measurement,setting,value
CC[C@@]1(O)C(=O)OCc2c1cc1n(c2=O)Cc2cc3c(CN(C)C)c(O)ccc3nc2-1 + COC1C(OC(N)=O)C(O)C(Oc2ccc3c(O)c(NC(=O)c4ccc(O)c(CC=C(C)C)c4)c(=O)oc3c2C)OC1(C)C,IC50,"curve of first compound, second compound 0.0316 µM",> 100 nM
same,IC50,"curve of first compound, second compound 0.1 µM",> 100 nM
same,IC50,"curve of first compound, second compound 0.316 µM",> 100 nM
same,IC50,"curve of first compound, second compound 1 µM",> 100 nM
same,IC50,"curve of first compound, second compound 3.16 µM",> 100 nM
same,IC50,"curve of first compound, second compound 10 µM",> 100 nM
same,"viability, T/C","second compound 0.0316 µM, first compound 0.000316 µM",99%
same,"viability, T/C","second compound 0.0316 µM, first compound 0.001 µM",100%
same,"viability, T/C","second compound 0.0316 µM, first compound 0.00316 µM",92.3%
same,"viability, T/C","second compound 0.0316 µM, first compound 0.01 µM",96.1%
same,"viability, T/C","second compound 0.0316 µM, first compound 0.0316 µM",89.5%
same,"viability, T/C","second compound 0.0316 µM, first compound 0.1 µM",74.2%
same,"viability, T/C","second compound 0.1 µM, first compound 0.000316 µM",99%
same,"viability, T/C","second compound 0.1 µM, first compound 0.001 µM",98.5%
same,"viability, T/C","second compound 0.1 µM, first compound 0.00316 µM",101%
same,"viability, T/C","second compound 0.1 µM, first compound 0.01 µM",101%
same,"viability, T/C","second compound 0.1 µM, first compound 0.0316 µM",87.7%
same,"viability, T/C","second compound 0.1 µM, first compound 0.1 µM",79.2%
same,"viability, T/C","second compound 0.316 µM, first compound 0.000316 µM",97.3%
same,"viability, T/C","second compound 0.316 µM, first compound 0.001 µM",99.5%
same,"viability, T/C","second compound 0.316 µM, first compound 0.00316 µM",105%
same,"viability, T/C","second compound 0.316 µM, first compound 0.01 µM",93.7%
same,"viability, T/C","second compound 0.316 µM, first compound 0.0316 µM",92.3%
same,"viability, T/C","second compound 0.316 µM, first compound 0.1 µM",79.1%
same,"viability, T/C","second compound 1 µM, first compound 0.000316 µM",105%
same,"viability, T/C","second compound 1 µM, first compound 0.001 µM",115%
same,"viability, T/C","second compound 1 µM, first compound 0.00316 µM",104%
same,"viability, T/C","second compound 1 µM, first compound 0.01 µM",97.5%
same,"viability, T/C","second compound 1 µM, first compound 0.0316 µM",94.2%
same,"viability, T/C","second compound 1 µM, first compound 0.1 µM",82.5%
same,"viability, T/C","second compound 3.16 µM, first compound 0.000316 µM",100%
same,"viability, T/C","second compound 3.16 µM, first compound 0.001 µM",99.8%
same,"viability, T/C","second compound 3.16 µM, first compound 0.00316 µM",105%
same,"viability, T/C","second compound 3.16 µM, first compound 0.01 µM",92.6%
same,"viability, T/C","second compound 3.16 µM, first compound 0.0316 µM",94.4%
same,"viability, T/C","second compound 3.16 µM, first compound 0.1 µM",74.7%
same,"viability, T/C","second compound 10 µM, first compound 0.000316 µM",105%
same,"viability, T/C","second compound 10 µM, first compound 0.001 µM",101%
same,"viability, T/C","second compound 10 µM, first compound 0.00316 µM",94.5%
same,"viability, T/C","second compound 10 µM, first compound 0.01 µM",100%
same,"viability, T/C","second compound 10 µM, first compound 0.0316 µM",91.3%
same,"viability, T/C","second compound 10 µM, first compound 0.1 µM",77.6%
CCc1c2c(nc3ccc(O)cc13)-c1cc3c(c(=O)n1C2)COC(=O)[C@]3(O)CC,"viability, T/C",compound 0.00316 µM,95.8% and 83.5% and 94.6%
same,"viability, T/C",compound 0.01 µM,85% and 74.5% and 81%
same,"viability, T/C",compound 0.0316 µM,71.9% and 75.1% and 71.4%
same,"viability, T/C",compound 0.1 µM,72.1% and 79.6% and 64.2%
same,"viability, T/C",compound 0.316 µM,63.3% and 81% and 57.8%
same,"viability, T/C",compound 1 µM,40.5% and 58.2% and 35.7%
same,IC50,curve of compound,627 nM and > 1000 nM and 375 nM
